Data: patent US20140357512A1, “HISTONE DEACETYLASE (HDAC) BIOMARKERS IN MULTIPLE MYELOMA” (priority 2013, published 2014)

System: human myeloma cell line MM.1S
Assay: SILAC acetylated-lysine peptide profiling, HDAC inhibitor vs DMSO (light/heavy ratio)
Assay type: cell-based
Description: An embodiment of the invention comprises utilizing the SILAC method in order to quantitate changes in protein expression between two or more populations of cells. The SILAC method is a technique based on mass spectrometry that detects differences in protein abundance among samples using non-radioactive isotopic labeling. The SILAC method is known in the art, and described in detail in Ong et al., “Stable Isotope Labeling by Amino Acids in Cell Culture, SILAC, as a Simple and Accurate Approach to Expression Proteomics”, Molecular & Cellular Proteomics, vol. 1, pp. 376-386 (2002), which is incorporated herein by reference in its entirety.
Briefly, the SILAC method involves growing two populations of cells in cell culture. The first population of cells is grown in growth media containing normal amino acids (“normal media”). The second population of cells is grown in media lacking a standard essential amino acid (such as lysine), but is then supplemented with a non-radioactive, isotopically labeled form of that essential amino acid (such as lysine labeled with ^13C atoms, rather than normal ^12C atoms), which is called “heavy media”. When the two populations of cells are each growing in the medium, they incorporate the amino acids into all of their proteins. The growth of cells maintained in the heavy media is no different from that in normal media. All peptides containing the heavy amino acids are heavier than their normal counterparts. The cells from each of the two populations of cells are lysed. The lysates from each of the two cell populations are then combined. The combined cell lysates are then analyzed by mass spectrometry. Pairs of chemically identical peptides of different stable isotope composition can be differentiated in a mass spectrometer due to their difference in mass. The ratio of peak intensities in the mass spectrum for such peptide pairs reflects the abundance ratio for the two proteins.
This example describes SILAC studies that were performed to compare the effects of three different HDAC inhibitors (Compound A, Compound B, and tubastatin A) to a control on a human multiple myeloma cell line. The HDAC inhibitors were also compared amongst themselves to determine differences in their effects.
A human myeloma cell line MM.1S was grown using either ^12C (light) or ^13C (heavy) lysine containing culture medium. The “heavy” cells were treated with DMSO as the control, and the “light” cells were treated with a single HDAC inhibitor at 37° C. for 6 hours. The heavy and light cells were lysed, and the lysates were mixed in 1:1 ratio and digested with the protease trypsin. The acetylated lysine containing peptides (due to the action of the HDAC inhibitor) in the digested peptide pool were captured by a non-specific anti-acetylated lysine antibody cocktail (the antibodies identify both light and heavy acetylated peptides), and subjected to mass spectrometry analysis in order to identify thousands of individual peptides.
Thousands of peptides were identified in pairs (^12C and ^13C) due to their known mass differences. The amino acid sequence and quantitative ratio (Light/Heavy) of a given peptide in two differentially treated cell lysates were then determined and annotated with their possible protein (gene) sources.
As stated above, three HDAC inhibitors (Compound A, Compound B, and Tubastatin A) were used. Thus, the SILAC method was performed three times, with a different HDAC inhibitor compared to a control each time. Accordingly, there are three pairs of quantitative data in the table below, i.e., Compound A:DMSO, Compound B:DMSO, and Tubastatin A:DMSO. A cut-off of 1.30 fold of change (increase or decrease) was then used to determine “changed” or “+” in the table, and any peptides with a fold of change less than 1.3 fold were determined to be “unchanged” or “0” in the table. Those peptides that were not identified were marked as “NA” in the table. […]

With `O=C(NO)c1cnc(NC2(c3cccc(F)c3)CCCCC2)nc1` [Compound B, 2-((1-(3-fluorophenyl)cyclohexyl)amino)-N-hydroxypyrimidine-5-carboxamide] the “L/H ratio of acetylated peptide LDHLAEK(ac)FR (SEQ ID NO: 20)” value (ACTN1 [398], log 2 scale, drug vs DMSO) was 0.00, the “L/H ratio of acetylated peptide […](ac)FVYQAK (SEQ ID NO: 126)” value (ADAR [757], log 2 scale, drug vs DMSO) was 0.00 and the “light to heavy ratio (L/H ratio) of acetylated peptide, log 2 scale” value (“light to heavy ratio (L/H ratio) … log 2 scale” for short) (ADINTK(ac)WAATR (SEQ ID NO: 202), Ribosomal protein L14 variant [85], RPL14) was 0.00. The “light to heavy ratio (L/H ratio) … log 2 scale” value (ADK(ac)DYHFK (SEQ ID NO: 191), Isoform 2 of Nucleophosmin [27], NPM1) was 0.00, the “light to heavy ratio (L/H ratio) of acetylated peptide TTLLYK(ac)LK (SEQ ID NO: 624)” value (ADP-ribosylation factor-like protein 11 [31], gene ARL11, inhibitor:DMSO) was 0.00 log 2 and the “light to heavy ratio (L/H ratio) of acetylated peptide IFK(ac)SDGLR (SEQ ID NO: 280)” value (ADP/ATP translocase 1 [166], SLC25A4, drug:DMSO) was 0.00 log 2. For the same compound, the “light to heavy ratio (L/H ratio) of acetylated peptide ITK(ac)SDGIR (SEQ ID NO: 587)” value (ADP/ATP translocase 3 [166], gene SLC25A6, inhibitor:DMSO) was 0.00 log 2, the “L/H ratio of acetylated peptide” value (AELSK(ac)LVIVAK (SEQ ID NO: 370), UPF0556 protein C19orf10 [161], C19orf10) was 1.00 log 2 and the “L/H ratio of acetylated peptide HLSDSINQK(ac)HFEQAIER” value (AFG3L2 [543], log 2 scale, drug vs DMSO) was 0.00. For the same compound, the “L/H ratio of acetylated peptide” value (AFQLK(ac)SR (SEQ ID NO: 439), ribonucleoprotein PTB-binding 1 [579], RAVER1) was −0.89 log 2, the “light to heavy ratio (L/H ratio) … log 2 scale” value (AFYK(ac)SFSK (SEQ ID NO: 170), Endoplasmin [360], HSP90B1) was 0.00 and the “L/H ratio of acetylated peptide” value (AK(ac)FESMAEEK (SEQ ID NO: 402), Hematopoietic lineage cell-specific protein [241], HCLS1) was 1.00 log 2. For the same compound, the “light to heavy ratio (L/H ratio) … log 2 scale” value (ALDLNLK(ac)HQILPK (SEQ ID NO: 248), Cytochrome b-c1 complex subunit 7 [72], UQCRB) was 0.00, the “L/H ratio of acetylated peptide LK(ac)[…] (SEQ ID NO: 21)” value (ANP32B [101], log 2 scale, drug vs DMSO) was 0.00 and the “L/H ratio of acetylated peptide […](ac)SLYGK (SEQ ID NO: 22)” value (ANXA6 [63], log 2 scale, drug vs DMSO) was 0.00. For the same compound, the “L/H ratio of acetylated peptide LGTDESK(ac)FNAVLCSR (SEQ ID NO: 7)” value (ANXA11 [478], log 2 scale, drug vs DMSO) was 0.50, the “L/H ratio of acetylated peptide MYFDK(ac)[…] (SEQ ID NO: 23)” value (ATAD3A [491], log 2 scale, drug vs DMSO) was 0.00 and the “L/H ratio of acetylated peptide” value (ATAEEMTK(ac)YHSDEYIK (SEQ ID NO: 403), Histone deacetylase 2[161], HDAC2) was 0.78 log 2. For the same compound, the “L/H ratio of acetylated peptide IVEYEK(ac)EMEK (SEQ ID NO: 24)” value (ATP5H [117], log 2 scale, drug vs DMSO) was 0.00, the “L/H ratio of acetylated peptide YYNK(ac)YINVK (SEQ ID NO: 12)” value (ATP5J2 [54], log 2 scale, drug vs DMSO) was −0.43 and the “light to heavy ratio (L/H ratio) of acetylated peptide QNK(ac)LEQVEK (SEQ ID NO: 271)” value (ATP synthase subunit O mitochondrial [54], ATP50, drug:DMSO) was 0.00 log 2. For the same compound, the “light to heavy ratio (L/H ratio) of acetylated peptide ISEQSDAK(ac)LK (SEQ ID NO: 600)” value (ATP synthase subunit alpha mitochondrial [539], gene ATP5A1, inhibitor:DMSO) was 0.00 log 2, the “light to heavy ratio (L/H ratio) of acetylated peptide […](ac)ETIAK (SEQ ID NO: 307)” value (ATP synthase subunit b mitochondrial [233], ATP5F1, drug:DMSO) was 0.00 log 2 and the “light to heavy ratio (L/H ratio) of acetylated peptide […](ac)QLTVK (SEQ ID NO: 279)” value (ATP synthase subunit g mitochondrial [66], ATP5L, drug:DMSO) was 0.00 log 2. The “light to heavy ratio (L/H ratio) of acetylated peptide ELDPIQK(ac)LFVDK (SEQ ID NO: 365)” value (ATP synthase-coupling factor 6 mitochondrial [41], ATP5J, drug:DMSO) was −0.48 log 2, the “light to heavy ratio (L/H ratio) of acetylated peptide FEDPK(ac)FEVIEKPQA (SEQ ID NO: 325)” value (ATP synthase-coupling factor 6 mitochondrial [99], ATP5J, drug:DMSO) was −0.50 log 2 and the “light to heavy ratio (L/H ratio) … log 2 scale” value (AVEEK(ac)[…] (SEQ ID NO: 172), 78 kDa glucose-regulated protein [601], HSPA5) was 0.00. The “L/H ratio of acetylated peptide” value (AVSMDNSNK(ac)YTK (SEQ ID NO: 396), Forkhead box protein O3 [259], FOXO3) was 0.45 log 2, the “L/H ratio of acetylated peptide” value (AYHLQK(ac)STCGK (SEQ ID NO: 443), 60S ribosomal protein L37 [31], RPL37) was 0.42 log 2 and the “light to heavy ratio (L/H ratio) of acetylated peptide NAYVWTLK(ac)GR (SEQ ID NO: 361)” value (Actin-related protein 2/3 complex subunit 1B [82], ARPC1B, ARPC1A, drug:DMSO) was −1.00 log 2. For the same compound, the “light to heavy ratio (L/H ratio) of acetylated peptide VFDPQNDK(ac)[…] (SEQ ID NO: 362)” value (Actin-related protein 2/3 complex subunit 3 [155], ARPC3, drug:DMSO) was 0.45 log 2 and the “light to heavy ratio (L/H ratio) of acetylated peptide AFAK(ac)ELFLGK (SEQ ID NO: 627)” value (Acyl-CoA dehydrogenase family member 9 mitochondrial [41], gene ACAD9, inhibitor:DMSO) was 0.00 log 2.
